This is an account of results in US20080124741A1, “Canine Cholecystokinin 1 Receptor Materials And Their Use” (priority 2004, published 2008).

Square brackets hold non-standard residues; d marks the D form. Ends that are not written are not given here. sY = N[C@@H](Cc1ccc(OS(=O)(=O)O)cc1)C(=O)O

One test has as its target T1, canine CCK2 receptor (Canis lupus familiaris, UniProt P30552).
T1 sequence (P30552 1-453): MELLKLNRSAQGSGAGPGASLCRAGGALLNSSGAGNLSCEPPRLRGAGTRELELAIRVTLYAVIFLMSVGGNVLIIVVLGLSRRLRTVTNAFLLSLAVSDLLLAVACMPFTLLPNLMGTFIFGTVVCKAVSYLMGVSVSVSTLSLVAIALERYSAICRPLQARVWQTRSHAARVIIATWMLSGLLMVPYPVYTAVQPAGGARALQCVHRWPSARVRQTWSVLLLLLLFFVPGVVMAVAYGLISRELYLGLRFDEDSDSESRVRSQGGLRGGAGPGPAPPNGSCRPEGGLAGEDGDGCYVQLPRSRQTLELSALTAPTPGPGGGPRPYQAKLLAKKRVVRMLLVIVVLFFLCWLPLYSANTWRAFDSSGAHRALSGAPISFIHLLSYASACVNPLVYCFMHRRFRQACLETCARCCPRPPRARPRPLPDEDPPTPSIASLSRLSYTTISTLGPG
As to the kind of experiment: competition binding of [125I]-BH-CCK-8S at canine CCK2 receptor. As to conditions: for nH (Hill slope) / Ki: Canine CCK2, [125I]-BH-CCK-8S radiolabel, n = 3, ± s.e. mean; for Ki: read-out: pKI (affinity value, -log equilibrium dissociation constant) (converted).

For a further test, the target named is T2, canine CCK1 receptor (Canis lupus familiaris, UniProt Q5D0K2).
T2 construct: expressed in transfected cells
T2 sequence (Q5D0K2 1-428): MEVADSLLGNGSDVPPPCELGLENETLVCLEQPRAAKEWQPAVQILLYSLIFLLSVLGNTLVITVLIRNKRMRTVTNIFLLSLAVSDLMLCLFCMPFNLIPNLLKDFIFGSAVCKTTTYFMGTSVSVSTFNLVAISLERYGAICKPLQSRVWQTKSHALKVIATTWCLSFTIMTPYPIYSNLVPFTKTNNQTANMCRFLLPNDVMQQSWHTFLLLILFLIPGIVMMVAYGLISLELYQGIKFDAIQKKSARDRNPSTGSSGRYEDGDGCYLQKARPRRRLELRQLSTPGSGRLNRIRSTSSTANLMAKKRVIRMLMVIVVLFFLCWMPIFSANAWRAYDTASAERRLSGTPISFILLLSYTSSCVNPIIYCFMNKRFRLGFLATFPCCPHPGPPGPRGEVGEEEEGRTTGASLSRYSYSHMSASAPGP
Put plainly: competition binding of [125I]-BH-CCK-8S at cloned canine CCK1 receptor stably expressed in CHO-K cells. To be noted: Canine CCK1, CHO-K cells, [125I]-BH-CCK-8S radiolabel, n = 3, ± s.e. mean.

The target in another test is T3, human CCK1 receptor (Homo sapiens, UniProt P32238).
T3 construct: expressed in transfected cells
T3 sequence (P32238 1-428): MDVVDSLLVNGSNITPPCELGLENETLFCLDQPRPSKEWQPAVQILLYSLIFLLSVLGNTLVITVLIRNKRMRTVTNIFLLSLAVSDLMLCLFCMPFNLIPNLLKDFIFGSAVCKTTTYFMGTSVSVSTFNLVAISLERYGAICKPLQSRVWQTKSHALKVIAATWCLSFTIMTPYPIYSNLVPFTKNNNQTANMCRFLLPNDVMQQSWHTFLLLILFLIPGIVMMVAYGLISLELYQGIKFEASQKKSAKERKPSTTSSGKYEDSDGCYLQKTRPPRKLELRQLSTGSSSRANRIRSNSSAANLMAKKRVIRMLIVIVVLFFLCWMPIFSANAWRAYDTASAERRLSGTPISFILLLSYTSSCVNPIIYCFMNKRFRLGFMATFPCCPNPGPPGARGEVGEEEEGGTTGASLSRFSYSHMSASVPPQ
Put plainly: competition binding of [125I]-BH-CCK-8S at cloned human CCK1 receptor. As to conditions: Human CCK1, [125I]-BH-CCK-8S radiolabel, n = 3, ± s.e. mean.

The target in the next test is T4, Canine CCK1: Wild-type (Canis lupus familiaris, UniProt Q5D0K2).
T4 construct: The ORF encodes a 428 amino-acid protein; expressed in transfected cells; host or cells: HEK-293 cells, transient
T4 sequence (Q5D0K2 1-428): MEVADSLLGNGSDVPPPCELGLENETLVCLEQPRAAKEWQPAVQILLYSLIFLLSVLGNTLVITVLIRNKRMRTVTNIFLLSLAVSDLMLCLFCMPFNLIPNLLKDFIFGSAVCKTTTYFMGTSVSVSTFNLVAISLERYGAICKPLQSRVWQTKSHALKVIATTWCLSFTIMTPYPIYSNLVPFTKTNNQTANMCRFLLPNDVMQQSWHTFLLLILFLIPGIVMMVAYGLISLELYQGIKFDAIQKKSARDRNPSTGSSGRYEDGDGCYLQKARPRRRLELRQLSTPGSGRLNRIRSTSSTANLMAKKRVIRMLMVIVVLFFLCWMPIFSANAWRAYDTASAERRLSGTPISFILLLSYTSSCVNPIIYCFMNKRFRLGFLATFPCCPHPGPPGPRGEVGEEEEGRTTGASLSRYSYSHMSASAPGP
Put plainly: competition binding at wild-type canine CCK1 receptor transiently transfected in HEK cells. To be noted: n = 3, ± s.e. mean.

In the next test the target is T5, Canine CCK1: Variant #1 (Canis lupus familiaris, UniProt Q5D0K2, G258S/L413V/V400A).
T5 construct: plasmid DNAs containing the respective variant canine CCK1 receptor cDNAs and the wild type cDNA were transiently transfected; expressed in transfected cells; host or cells: HEK-293 cells, transient
T5 sequence (Q5D0K2 1-428 G258S/V400A/L413V): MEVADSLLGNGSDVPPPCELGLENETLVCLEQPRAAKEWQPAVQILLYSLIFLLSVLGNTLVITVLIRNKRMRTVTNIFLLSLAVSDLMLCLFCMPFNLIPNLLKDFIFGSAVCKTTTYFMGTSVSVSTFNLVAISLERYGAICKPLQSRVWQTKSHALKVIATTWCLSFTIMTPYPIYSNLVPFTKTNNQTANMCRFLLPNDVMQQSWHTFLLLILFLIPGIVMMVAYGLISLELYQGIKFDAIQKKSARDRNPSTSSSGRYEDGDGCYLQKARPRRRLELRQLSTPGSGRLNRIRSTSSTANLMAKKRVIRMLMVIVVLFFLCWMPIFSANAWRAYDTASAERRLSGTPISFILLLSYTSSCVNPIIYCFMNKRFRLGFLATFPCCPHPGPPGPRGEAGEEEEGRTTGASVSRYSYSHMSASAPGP
Put plainly: competition binding at variant #1 canine CCK1 receptor transiently transfected in HEK cells. As to conditions: Canine CCK1 variant #1, transiently transfected in HEK cells, n = 3, ± s.e. mean.

Test [1] has as its target T6, guinea-pig pancreatic CCK1 receptors (Cavia porcellus, UniProt Q63931).
T6 construct: host or cells: guinea-pig pancreas
T6 sequence (Q63931 1-430): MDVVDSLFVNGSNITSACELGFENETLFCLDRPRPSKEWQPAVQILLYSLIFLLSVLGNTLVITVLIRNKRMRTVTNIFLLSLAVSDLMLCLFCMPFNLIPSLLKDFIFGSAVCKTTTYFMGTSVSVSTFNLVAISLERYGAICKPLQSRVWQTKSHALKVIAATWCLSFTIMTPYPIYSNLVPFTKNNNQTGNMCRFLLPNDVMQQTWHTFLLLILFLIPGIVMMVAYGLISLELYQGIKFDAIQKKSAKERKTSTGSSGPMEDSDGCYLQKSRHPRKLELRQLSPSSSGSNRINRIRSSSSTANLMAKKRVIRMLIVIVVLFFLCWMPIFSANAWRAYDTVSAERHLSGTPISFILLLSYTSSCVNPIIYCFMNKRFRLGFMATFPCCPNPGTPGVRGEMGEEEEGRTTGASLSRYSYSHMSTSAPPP
As to conditions: guinea-pig pancreatic CCK1 receptors (Takinami et al., 1997); cited from earlier work.

The target of test [2] is T7, wild-type canine CCK1 receptor (canine, UniProt Q5D0K2 1-428).
T7 construct: Full-length receptor, stably expressed in CHO-K cells or transiently in HEK-293 cells; It was assayed as membrane preparations of those cells; also called canine cholecystokinin 1 receptor; control wild-type canine CCK1R protein
T7 sequence: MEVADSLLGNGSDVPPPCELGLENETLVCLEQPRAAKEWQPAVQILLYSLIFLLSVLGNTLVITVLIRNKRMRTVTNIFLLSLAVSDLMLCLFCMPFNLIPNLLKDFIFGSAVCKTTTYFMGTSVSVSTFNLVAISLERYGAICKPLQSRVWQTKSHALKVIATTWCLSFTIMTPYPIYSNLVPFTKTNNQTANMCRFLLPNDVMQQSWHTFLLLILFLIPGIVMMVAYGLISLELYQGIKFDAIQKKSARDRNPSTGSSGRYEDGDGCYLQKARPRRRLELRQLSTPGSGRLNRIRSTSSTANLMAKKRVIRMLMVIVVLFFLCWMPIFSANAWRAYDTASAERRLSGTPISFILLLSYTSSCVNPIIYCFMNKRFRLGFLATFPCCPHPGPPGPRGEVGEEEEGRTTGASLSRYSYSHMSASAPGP
Put plainly: saturation radioligand binding, membranes of stably transfected CHO cells, first phase of the isotherm.
Method: The homogenate was centrifuged (800×g for 10 min) and the pellet discarded. The supernatant was re-centrifuged (39,800×g for 25 min) and the final pellet re-suspended in 20 ml assay buffer (cell concentration: 25×10⁵ cells ml⁻¹). […] All binding assays were conducted in 96 well Multiscreen GF/B filter plates (Millipore, Billerica, Mass., USA) that were pre-soaked in assay buffer for 1 h. For competition studies, cell membranes (45 μl) were incubated with 60 μM [¹²⁵I]-BH-CCK-8S (50 μl) in the presence of competing ligand (15 μl) for 90 min (total volume of 150 μl). […] The bound radioactivity was separated by filtration using a Multiscreen Resist manifold (Millipore, Billericay, Mass., USA). The filters were washed three times with ice-cold PBS (pH 7.5) and radioactivity retained on the filters was measured by liquid scintillation counting using a TopCount (Packard BioScience, Boston, Mass.). All experiments were performed in triplicate.

Test [3] concerns the target T8, canine CCK1 receptor variant #2 (canine, UniProt Q5D0K2 1-428).
T8 construct: Six amino-acid differences from wild type; Transiently expressed in HEK-293 cells and assayed as membrane preparations; also called canine CCK1 variant #2 receptor
T8 chain: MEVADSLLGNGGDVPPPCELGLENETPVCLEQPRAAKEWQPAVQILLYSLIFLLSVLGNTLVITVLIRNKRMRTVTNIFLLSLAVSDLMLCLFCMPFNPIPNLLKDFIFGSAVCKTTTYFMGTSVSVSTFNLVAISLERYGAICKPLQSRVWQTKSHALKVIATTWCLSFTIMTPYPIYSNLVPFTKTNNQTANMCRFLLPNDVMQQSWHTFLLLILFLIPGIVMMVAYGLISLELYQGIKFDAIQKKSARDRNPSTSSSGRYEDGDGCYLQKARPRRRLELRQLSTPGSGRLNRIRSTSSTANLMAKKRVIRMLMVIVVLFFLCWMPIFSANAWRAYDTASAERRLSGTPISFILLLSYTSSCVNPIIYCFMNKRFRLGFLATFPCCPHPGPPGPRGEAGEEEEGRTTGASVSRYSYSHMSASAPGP
Put plainly: radioligand binding (20 pM [125I]-BH-CCK-8S) against increasing membrane protein, transiently transfected HEK cells.

Setting [4] is: read-out: pKI (affinity value, -log equilibrium dissociation constant) (converted).

Method for human CCK1 receptor: For radioligand binding studies, the cells were harvested by cell scraping and resulting pellets immediately frozen at −80° C. (approximately 50×10^6 cells/pellet). Frozen cell pellets were defrosted on ice in 15 ml of assay buffer (composition; 10 mM HEPES, 130 mM NaCl, 4.7 mM KCl, 5 mM MgCl2, bacitracin 0.089; pH 7.2 at 21±3° C.) and then homogenized (setting 10, 7×3 s; Polytron; Brinkmann Instruments). The homogenate was centrifuged (800×g for 10 min) and the pellet discarded. The supernatant was re-centrifuged (39,800×g for 25 min) and the final pellet re-suspended in 20 ml assay buffer (cell concentration: 25×10^5 cells ml^−1). Protein concentration was determined using BCA Protein Assay Kit (Pierce, Rockford, Ill.). All binding assays were conducted in 96 well Multiscreen GF/B filter plates (Millipore, Billerica, Mass., USA) that were pre-soaked in assay buffer for 1 h. […] Nonspecific binding was determined by inclusion of 10 μM 2-NAP (a CCK1 receptor selective antagonist; see, e.g., Hull et al., 1993, Br. J. Pharmacol., 108:734-740). All radioligand binding studies were conducted in the presence of the CCK2 receptor-selective antagonist PD-134,308 at a concentration estimated to occupy 99% of human CCK2 receptors (0.3 μM; se, e.g., Hughes et al., 1990, Proc. Natl. Acad. Sci. U.S.A., 87(17):6728-6732; Hunter et al., 1993, Mol. Pharmacol., 43:595-602). The bound radioactivity was separated by filtration using a Multiscreen Resist manifold (Millipore, Billericay, Mass., USA). The filters were washed three times with ice-cold PBS (pH 7.5) and radioactivity retained on the filters was measured by liquid scintillation counting using a TopCount (Packard BioScience, Boston, Mass.). All experiments were performed in triplicate.
Equilibrium dissociation constant (K1) values were assumed to be equal to the IC50 values obtained from the logistic curve fit as the radiolabel concentrations used in the assays were always below the KD of the radiolabel. The equilibrium dissociation constants (K1) values were calculated from the midpoint locations (IC50) following Cheng & Prusoff, eqn.
Competition-inhibition studies were conducted on the canine and human CCK1 receptor using a cell-protein concentration within the linear range of the cell number curve (80 μg/ml, cell number curves not shown).

For the molecule `CN1C(=O)[C@@H](NC(=O)c2cc3ccccc3[nH]2)N=C(c2ccccc2)c2ccccc21` [L-364,718], on canine CCK2 receptor, the “nH (Hill slope)” value turned out to be 0.87 ± 0.06 and the Ki is 24 nM.
Turning to `CNc1cccc(NC(=O)N[C@@H]2N=C(c3ccccn3)c3ccccc3N(CC(=O)C(C)(C)C)C2=O)c1` [YF476], the “nH (Hill slope)” value on canine CCK1 receptor is 0.88 ± 0.08; on human CCK1 receptor, 0.95 ± 0.07; on canine CCK2 receptor it was 0.91 ± 0.10; at Canine CCK1: Wild-type it was 0.60 ± 0.22; on Canine CCK1: Variant #1, 1.14 ± 0.37. Also, the Ki on canine CCK1 receptor (setting [4]) is 12.3 nM; on human CCK1 receptor (setting [4]), 13.5 nM; at canine CCK2 receptor, 1.05 nM; at Canine CCK1: Wild-type (setting [4]), 12 nM; on Canine CCK1: Variant #1 (setting [4]), 15.1 nM. The “fold higher affinity at the canine CCK2 receptor compared to the canine CCK1 receptor” value on canine CCK2 receptor (canine CCK2 over canine CCK1) is on record as approximately 12 fold. The “reported pK1 value” in test [1] is on record as approximately 6.5.

B1: [^125I]-BH-CCK-8S (peptide, UniProt P06307 96-103, looked up)
peptide: {BH(125I)}-D[sY]MGWMDF
modifications: not fully specified (C-terminus); ends and bridges not checked; also: sulfated, site not given here, 125I Bolton-Hunter conjugate, site not given here
notes: Radioligand; also called Bolton-Hunter conjugated sulfated CCK-8
With B1, in test [2], the pKD was 10.5 pKD (negative log of KD). Also, the binding result in test [3] is on record as “no binding (tested: 2500 µg/ml protein)”.
